Calls of active or inactive are those of the source. The rule behind the calls is not given here.
Tests used:
[1] = target: T1, Urotensin-2 receptor (Rattus norvegicus) (UniProt P49684); experiment: Agonist activity at UT receptor in Sprague-Dawley rat thoracic aortic ring assessed as induction of contraction at 10^-5M relative to KCl-induced contraction; format: functional
T1 sequence (whole entry): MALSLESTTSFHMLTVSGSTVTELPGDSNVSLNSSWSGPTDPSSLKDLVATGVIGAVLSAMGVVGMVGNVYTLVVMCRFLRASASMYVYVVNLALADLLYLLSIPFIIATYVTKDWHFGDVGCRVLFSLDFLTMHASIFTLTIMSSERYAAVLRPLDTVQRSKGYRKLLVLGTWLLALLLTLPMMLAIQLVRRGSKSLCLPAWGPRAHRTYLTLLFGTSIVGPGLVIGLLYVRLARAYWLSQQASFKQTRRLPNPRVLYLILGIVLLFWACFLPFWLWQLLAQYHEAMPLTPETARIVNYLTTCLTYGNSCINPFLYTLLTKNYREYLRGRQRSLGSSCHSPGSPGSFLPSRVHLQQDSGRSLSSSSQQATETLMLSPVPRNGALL

[2] = target: T1, Urotensin-2 receptor (Rattus norvegicus); experiment: (§1) Antagonist activity at UT receptor in Sprague-Dawley rat thoracic aortic ring assessed as reduction in urotensin-2-induced contraction by measuring Emax for human urotensin-2-induced contraction at 1 uM pre-incubated for 30 mins before urotensin-2 stimulation relative to KCl-induced contraction (reference value: 101 +/- 4%); format: functional
[3] = target: T1, Urotensin-2 receptor (Rattus norvegicus); experiment: as §1, with “in URP-induced” for “in urotensin-2-induced”, “value: 107” for “value: 101”, “+/- 3%)” for “+/- 4%)”; format: functional
[4] = target: T2, Urotensin-2 receptor (Homo sapiens) (UniProt Q9UKP6); experiment: Agonist activity at human UT receptor expressed in HEK293 cells co-expressing Gq-polycistronic BRET biosensor assessed as induction of Gq activation measured for 5 mins by luminescence detection based BRET assay relative to 10 uM URP; format: functional, cell-based
T2 sequence (whole entry): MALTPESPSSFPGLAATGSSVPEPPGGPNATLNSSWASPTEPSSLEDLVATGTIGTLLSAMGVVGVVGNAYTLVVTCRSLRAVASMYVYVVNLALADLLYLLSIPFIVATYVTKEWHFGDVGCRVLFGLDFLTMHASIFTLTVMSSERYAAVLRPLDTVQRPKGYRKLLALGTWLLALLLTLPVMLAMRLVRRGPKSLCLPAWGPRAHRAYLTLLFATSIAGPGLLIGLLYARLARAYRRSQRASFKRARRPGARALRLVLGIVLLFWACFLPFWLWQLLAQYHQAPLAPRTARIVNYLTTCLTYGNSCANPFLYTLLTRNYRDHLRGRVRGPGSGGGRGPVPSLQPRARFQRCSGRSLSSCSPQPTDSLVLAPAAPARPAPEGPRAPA

[5] = target: T2, Urotensin-2 receptor (Homo sapiens); experiment: Agonist activity at human UT receptor expressed in HEK293 cells co-expressing G12-polycistronic BRET biosensor assessed as induction of G12 activation measured for 5 mins by luminescence detection based BRET assay relative to 10 uM URP; format: functional, cell-based
[6] = target: T2, Urotensin-2 receptor (Homo sapiens); experiment: Agonist activity at human UT receptor expressed in HEK293 cells co-expressing beta-arrestin1-polycistronic BRET biosensor assessed as induction of beta-arrestin1 recruitment measured for 5 mins by luminescence detection based BRET assay relative to 10 uM URP; format: functional, cell-based
[7] = target: T2, Urotensin-2 receptor (Homo sapiens); experiment: (§2) Selectivity index, change in deltalog(Tau/KA) for agonist activity at human UT receptor expressed in HEK293 cells co-expressing G12-polycistronic BRET biosensor assessed as induction of G12 activation by luminescence detection based BRET assay to deltalog(Tau/KA) for agonist activity at human UT receptor expressed in HEK293 cells co-expressing Gq-polycistronic BRET biosensor assessed as induction of Gq activation by luminescence detection based BRET assay; format: functional, cell-based
[8] = target: T2, Urotensin-2 receptor (Homo sapiens); experiment: as §2, with “Bias factor, ratio of” for “Selectivity index, change in”; format: functional, cell-based
[9] = target: T2, Urotensin-2 receptor (Homo sapiens); experiment: (§3) Bias factor, ratio of deltalog(Tau/KA) for agonist activity at human UT receptor expressed in HEK293 cells co-expressing Gq-polycistronic BRET biosensor assessed as induction of Gq activation by luminescence detection based BRET assay to deltalog(Tau/KA) for agonist activity at human UT receptor expressed in HEK293 cells co-expressing G12-polycistronic BRET biosensor assessed as induction of G12 activation by luminescence detection based BRET assay; format: functional, cell-based
[10] = target: T2, Urotensin-2 receptor (Homo sapiens); experiment: Selectivity index, change in deltalog(Tau/KA) for agonist activity at human UT receptor expressed in HEK293 cells co-expressing Gq-polycistronic BRET biosensor assessed as induction of Gq activation by luminescence detection based BRET assay to deltalog(Tau/KA) for agonist activity at human UT receptor expressed in HEK293 cells co-expressing beta-arrestin1-polycistronic BRET biosensor assessed as induction of beta-arrestin1 recruitment by luminescence detection based BRET assay; format: functional, cell-based
[11] = target: T2, Urotensin-2 receptor (Homo sapiens); experiment: as §3, with “beta-arrestin1-polycistronic” for “G12-polycistronic”, “beta-arrestin1 recruitment” for “G12 activation”; format: functional, cell-based
[12] = target: T2, Urotensin-2 receptor (Homo sapiens); experiment: (§4) Bias factor, ratio of deltalog(Tau/KA) for agonist activity at human UT receptor expressed in HEK293 cells co-expressing beta-arrestin1-polycistronic BRET biosensor assessed as induction of beta-arrestin1 recruitment by luminescence detection based BRET assay to deltalog(Tau/KA) for agonist activity at human UT receptor expressed in HEK293 cells co-expressing Gq-polycistronic BRET biosensor assessed as induction of Gq activation by luminescence detection based BRET assay; format: functional, cell-based
[13] = target: T2, Urotensin-2 receptor (Homo sapiens); experiment: Selectivity index, change in deltalog(Tau/KA) for agonist activity at human UT receptor expressed in HEK293 cells co-expressing beta-arrestin1-polycistronic BRET biosensor assessed as induction of beta-arrestin1 recruitment by luminescence detection based BRET assay to deltalog(Tau/KA) for agonist activity at human UT receptor expressed in HEK293 cells co-expressing G12-polycistronic BRET biosensor assessed as induction of G12 activation by luminescence detection based BRET assay to; format: functional, cell-based
[14] = target: T2, Urotensin-2 receptor (Homo sapiens); experiment: as §4, with “G12-polycistronic” for “Gq-polycistronic”, “G12” for “Gq”; format: functional, cell-based
[15] = target: T2, Urotensin-2 receptor (Homo sapiens); experiment: Bias factor, ratio of deltalog(Tau/KA) for agonist activity at human UT receptor expressed in HEK293 cells co-expressing G12-polycistronic BRET biosensor assessed as induction of G12 activation by luminescence detection based BRET assay to deltalog(Tau/KA) for agonist activity at human UT receptor expressed in HEK293 cells co-expressing beta-arrestin1-polycistronic BRET biosensor assessed as induction of beta-arrestin1 recruitment by luminescence detection based BRET assay; format: functional, cell-based
[16] = target: T3, Urotensin-2 receptor (Homo sapiens, UniProt Q9UKP6); experiment: Displacement of [Na125I]-synthetic URP from human UT receptor expressed in HEK293 cell membranes incubated for 2 hrs by gamma-counting
T3 sequence (Q9UKP6 whole entry): T2 sequence (whole entry)

[17] = target: T4, Urotensin-2 receptor (Rattus norvegicus, UniProt P49684); experiment: Agonist activity at UT receptor in Sprague-Dawley rat thoracic aortic ring assessed as induction of contraction; format: functional
T4 sequence (P49684 whole entry): T1 sequence (whole entry)

[18] = target: T1, Urotensin-2 receptor (Rattus norvegicus); experiment: Agonist activity at UT receptor in Sprague-Dawley rat thoracic aortic ring assessed as induction of contraction relative to KCl-induced contraction; format: functional
[19] = target: T1, Urotensin-2 receptor (Rattus norvegicus); experiment: Antagonist activity at UT receptor in Sprague-Dawley rat thoracic aortic ring assessed as reduction in urotensin-2-induced contraction by measuring pEC50 for human urotensin-2-induced contraction at 1 uM pre-incubated for 30 mins before urotensin-2 stimulation (reference value: 8.59 +/- 0.12); format: functional
[20] = target: T1, Urotensin-2 receptor (Rattus norvegicus); experiment: Antagonist activity at UT receptor in Sprague-Dawley rat thoracic aortic ring assessed as reduction in URP-induced contraction by measuring pEC50 for […] at 1 uM pre-incubated for 30 mins […] (reference value: 8.16 +/- 0.08); format: functional
[21] = target: T3, Urotensin-2 receptor; experiment: Agonist activity at human UT receptor expressed in HEK293 cells co-expressing Gq-polycistronic BRET biosensor assessed as induction of Gq activation measured for 5 mins by luminescence detection based BRET assay; format: functional, cell-based
[22] = target: T3, Urotensin-2 receptor; experiment: Agonist activity at human UT receptor expressed in HEK293 cells co-expressing G12-polycistronic BRET biosensor assessed as induction of G12 activation measured for 5 mins by luminescence detection based BRET assay; format: functional, cell-based
[23] = target: T3, Urotensin-2 receptor; experiment: Agonist activity at human UT receptor expressed in HEK293 cells co-expressing beta-arrestin1-polycistronic BRET biosensor assessed as induction of beta-arrestin1 recruitment measured for 5 mins by luminescence detection based BRET assay; format: functional, cell-based
[24] = target: T1, Urotensin-2 receptor (Rattus norvegicus); experiment: Antagonist activity at UT receptor in Sprague-Dawley rat thoracic aortic ring assessed as reduction in urotensin-2-induced contraction by measuring Emax for human urotensin-2-induced contraction at 1 x 10^-8M uM pre-incubated for 30 mins before urotensin-2 stimulation (reference value: 101 +/- 4%); format: functional
[25] = target: T1, Urotensin-2 receptor (Rattus norvegicus); experiment: Antagonist activity at UT receptor in Sprague-Dawley rat thoracic aortic ring assessed as reduction in urotensin-2-induced contraction by measuring Emax for human urotensin-2-induced contraction at 1 x 10^-7M uM pre-incubated for 30 mins before urotensin-2 stimulation (reference value: 101 +/- 4%); format: functional
[26] = target: T1, Urotensin-2 receptor (Rattus norvegicus); experiment: as §1, with “in URP-induced” for “in urotensin-2-induced”, “at 3 x 10^-10M” for “at 1 uM”, “value: 107” for “value: 101”, “+/- 3%)” for “+/- 4%)”; format: functional
[27] = target: T1, Urotensin-2 receptor (Rattus norvegicus); experiment: as §1, with “in URP-induced” for “in urotensin-2-induced”, “at 3 x 10^-9M” for “at 1 uM”, “value: 107” for “value: 101”, “+/- 3%)” for “+/- 4%)”; format: functional
[28] = target: T1, Urotensin-2 receptor (Rattus norvegicus); experiment: as §1, with “in URP-induced” for “in urotensin-2-induced”, “1 x 10^-8M” for “1 uM”, “value: 107” for “value: 101”, “+/- 3%)” for “+/- 4%)”; format: functional
[29] = target: T1, Urotensin-2 receptor (Rattus norvegicus); experiment: as §1, with “in URP-induced” for “in urotensin-2-induced”, “1 x 10^-7M” for “1 uM”, “value: 107” for “value: 101”, “+/- 3%)” for “+/- 4%)”; format: functional

SMILES	Emax [2] [%]	Emax [3] [%]	Emax [4] [%]	Emax [5] [%]	Emax [6] [%]	deltalog(Tau/KA) [7]	fold change (FC) [8]	fold change (FC) [9]	selectivity index, deltadeltalog(Tau/KA) [10]	fold change (FC) [11]	fold change (FC) [12]	deltadeltalog(Tau/KA) (beta-arrestin1 selectivity index) [13]	fold change (FC) [14]	fold change (FC) [15]	IC50 [16] [nM]	EC50 [17] [nM]	Emax [18] [%]	pEC50 [19]	pEC50 [20]	EC50 [21] [nM]	other results
CC(C)[C@H](NC(=O)[C@@H]1CSSC[C@H](NC(=O)[C@H](N)CC(=O)O)C(=O)N[C@@H](Cc2ccc(I)cc2)C(=O)N[C@@H](Cc2c[nH]c3ccccc23)C(=O)N[C@@H](CCCCN)C(=O)N[C@@H](Cc2ccc(O)cc2)C(=O)N1)C(=O)O	95	107	91	91	97	0.64	4.3	0.2	-0.73	0.2	5.3	0.09	1.2	0.8							Emax [1]: 49%
CC(C)[C@H](NC(=O)[C@@H]1CSSC[C@H](NC(=O)[C@H](C)N)C(=O)N[C@@H](Cc2ccc(C#Cc3ccccc3)cc2)C(=O)N[C@@H](Cc2c[nH]c3ccccc23)C(=O)N[C@@H](CCCCN)C(=O)N[C@@H](Cc2ccc(O)cc2)C(=O)N1)C(=O)O	15	25	102	78	94	0.24	1.8	0.6	-0.03	0.9	1.1	-0.22	0.6	1.6	26.9	32.4	28	Active	Active	27.5	EC50 [22]: 148 nM; EC50 [23]: 759 nM
CC(C)[C@H](NC(=O)[C@@H]1CSSC[C@H](NC(=O)[C@H](C)N)C(=O)N[C@@H](Cc2ccc(-c3ccccc3)cc2)C(=O)N[C@@H](Cc2c[nH]c3ccccc23)C(=O)N[C@@H](CCCCN)C(=O)N[C@@H](Cc2ccc(O)cc2)C(=O)N1)C(=O)O	23	31	91	80	76	0.15	1.4	0.7	0.45	2.8	0.4	-0.6	0.3	3.9	5.37	28.8	25	Active	Active	15.1	Emax [24]: 78%; Emax [25]: 58%; Emax [26]: 104%; Emax [27]: 94%; Emax [28]: 75%; Emax [29]: 60%; EC50 [22]: 120 nM; EC50 [23]: 603 nM

Source: ChEMBL document CHEMBL4196183, “Discovery of New Allosteric Modulators of the Urotensinergic System through Substitution of the Urotensin II-Related Peptide (URP) Phenylalanine Residue” (J Med Chem, 2018)
